Source: US20240425529A1, “BORIC ACID DERIVATIVE” (SHOUYAO HOLDINGS (BEIJING) CO., LTD., priority 2021, published 2024)

How the values were obtained:
LMP7 [1] = molecular target: T1, LMP7 (Homo sapiens, UniProt P28062); assay: Cytological inhibitory activity on LMP7 in MOLT-4 cells; assay type: cell-based; settings: incubation for 2 hours with compound, read-out: Cytological activity data LMP7 Activity (MOLT-4Cell)
T1 construct: using MOLT-4 cell lysate as the enzyme source of LMP7; endogenous in cells; host or cells: MOLT-4 (human acute lymphoblastic leukemia cells)
Procedure: MOLT-4 are human acute lymphoblastic leukemia cells and have been identified as cells with high expression of LMP7. In this experiment, the compounds were pre-incubated with MOLT-4, and Ac-ANW-AMC (BonstonBiochem, Cat #S-320) was used as the substrate of LMP7 to establish the detection method for the enzymatic activity of LMP7 in cells and detect the compound inhibitory activity (half inhibitory concentration, IC50).
Cells were plated in a 24-well plate (Corning) at a concentration of 1.5×10^5/ml per well. The next day compounds were prepared and diluted in a 5-fold gradient from 2 mM in 100% DMSO for a total of 8 concentrations. 2 μl for each concentration of the compound was added to a 1-ml cell culture medium, supplemented with 1 ml of RPMI-1640 only (final FBS concentration 5%, v/v). The compounds were mixed with the cells. After incubation for 2 hours in the incubator, the cells were centrifuged at 2000 rpm for 8 minutes to discard the supernatant. The cells were washed once with 2 ml PBS (Solarbio), and centrifuged again to discard the supernatant. The cells were resuspended in 100 μl of lysis buffer (20 mM Tris, pH 8.0, 5 mM EDTA, plus Protease inhibitor (1: 100) and Phosphatase Inhibitor (1:100) when used) and left in a 4° C. refrigerator for 45 minutes.
After 2 min. of centrifuge at 2000 rpm, the lysate was transferred from the 24-well plate to a 96-well plate, and centrifuged at 2000 rpm, 4° C., for 15 min. The supernatant was the lysate. Protein quantification was performed using the BCA method (Thermo, #23225). A 2* lysate was prepared with the reaction buffer (20 mM Tris, pH 8.0, 0.5 mM EDTA) at a final concentration of 20 ng/μl. 2* Ac-ANW-AMC was prepared with the reaction buffer at a final concentration of 100 μM. 10 µl of 2* lysate was added to a 384-well plate (OptiPlate-384, purchased from PerkinElmer), and added with 10 W of 2* Ac-ANW-AMC. The reaction was started by centrifugation at 23° C. in the dark for 1 hour. After completion of the reaction, the signal value (excitation wavelength 345 nm/emission wavelength 445 nm) was read on the CLARIO starPlus (purchased from BMG LRBTECH). Enzyme activity was determined at 8 concentrations for each compound, and data were processed using the GraphPad Prism software to calculate the half inhibitory concentration of the compound on LMP7 hydrolase in MOLT-4 cells, i.e. the IC50 value.

LMP7 [2] = molecular target: T1, LMP7; assay: Enzymatic inhibitory activity on LMP7 (MOLT-4 cell lysate, Ac-ANW-AMC substrate); assay type: biochemical; settings: 1 hour pre-incubation
From the text: LMP7 is a catalytic subunit of immunoproteasomes. In this experiment, an enzymatic detection platform was established using its hydrolytic enzyme activity and used for compound activity detection. Using Ac-ANW-AMC (Bonston Biochem, Cat #S-320) as a substrate for LMP7, the amount of fluorescent group AMC (7-amino-4-methylcoumarin) released after hydrolysis can reflect the enzymatic activity. MOLT-4 cells are human acute lymphoblastic leukemia cells and have been identified as cells with high expression of LMP7. We established an enzymatic detection method for compound inhibition on LMP7 using MOLT-4 cell lysate as the enzyme source of LMP7 and detected the compound inhibitory activity (half inhibitory concentration, IC50).
(§1) MOLT-4 cells were cultured in a 75 cm^2 cell culture flask (Corning) (37° C., 95% air, and 5% CO2) with RPMI-1640 (Biological Industries) medium containing 10% fetal bovine serum (Biological Industries) and 1% Pen Strep (Gibco) and passaged 2-3 times one week. 1×10^7 MOLT-4 cells were collected, resuspended in 1 ml of PBS (Solarbio), and centrifuged at 3000 rpm for 5 minutes. The supernatant was aspirated off. The cells were resuspended in 500 μl of lysis buffer (20 mM Tris, pH 8.0, 5 mM EDTA, plus Protease inhibitor (1:1000) and Phosphatase Inhibitor (1:100) when used) and left on ice for 30 minutes. The cells were broken by supersonic technique, 0.5 S on, 0.5 S off, for 2.5 S. The centrifuge was performed at 12000 rpm, 4° C. for 10 minutes. The supernatant was the cell lysate and protein quantification was performed by using the BCA method (Thermo, #23225).
Compounds were diluted in a 5-fold gradient with 100% DMSO for a total of 9 concentrations: 2 W for each concentration was added to a 48-μl reaction buffer (20 mM Tris, pH 8.0, 0.5 mM EDTA) and mixed well as 4* compound (final concentrations: 2000, 400, 80, 16, 3.2, 0.64, 0.128, 0.0256, and 0 nM) for later use. A reaction buffer was used to prepare 4* MOLT-4 cell lysate at a final concentration of 20 ng/μl and 2*Ac-ANW-AMC at a final concentration of 100 µM. 5 μl of 4* compound was added to a 384-well plate (OptiPlate-384, purchased from PerkinElmer), added with 5 W of 4* cell lysate, centrifuged, and reacted in an incubator at 23° C. for 1 hour. 10 W of 2* Ac-ANW-AMC was added and the reaction was started by centrifugation at 23° C. in the dark for 2 hours. After completion of the reaction, the signal value (excitation wavelength 345 nm/emission wavelength 445 nm) was read on the CLARIO star^Plus (purchased from BMG LRBTECH). Enzyme activity was determined at 9 concentrations for each compound, and data were processed using the GraphPad Prism software to calculate the half inhibitory concentration of the compound on LMP7, i.e. the IC50 value.

β5 = molecular target: T2, β5 (Homo sapiens, UniProt P28074); assay: Enzymatic inhibitory activity on β5 (HEK-293 cell lysate, Ac-WLA-AMC substrate); assay type: biochemical; settings: 1 hour pre-incubation
T2 construct: using HEK-293 cell lysate as the enzyme source of D5; endogenous in cells; host or cells: HEK-293 (human embryonic kidney cells)
From the text: β5 is a catalytic subunit of immunoproteasomes. In this experiment, an enzymatic detection platform was established using its hydrolytic enzyme activity and used for compound activity detection. Using Ac-WLA-AMC (Bonston Biochem, Cat #5-330) as a substrate for D5, the amount of fluorescent group AMC (7-amino-4-methylcoumarin) released after hydrolysis can reflect the enzymatic activity. […] We established an enzymatic detection method for compound inhibition on D5 using HEK-293 cell lysate as the enzyme source of D5 and detected the compound inhibitory activity (half inhibitory concentration, IC50). The enzymatic inhibitory activity of compounds against D5 was used as a measure index of compound selectivity.
as §1, with “HEK-293” for “MOLT-4”, “DMEM” for “RPMI-1640”, “performed” for “performed by”
Compounds were diluted in a 5-fold gradient with 100% DMSO for a total of 9 concentrations. 2 W for each concentration was added to a 48-μl reaction buffer (20 mM Tris, pH 8.0, 0.5 mM EDTA) and mixed well as 4* compound (final concentrations: 100000, 20000, 4000, 800, 160, 32, 6.4, 1.28, and 0 nM) for later use. A reaction buffer was used to prepare 4*HEK-293 cell lysate at a final concentration of 25 ng/μl and 2*Ac-WLA-AMC at a final concentration of 20 μM. 5 W of 4* compound was added to a 384-well plate (OptiPlate-384, purchased from PerkinElmer), added with 5 W of 4*HEK-293 cell lysate, centrifuged, and reacted in an incubator at 23° C. for 1 hour. 10 W of 2* Ac-WLA-AMC was added and the reaction was started by centrifugation at 23° C. in the dark for 2 hours. After completion of the reaction, the signal value (excitation wavelength 345 nm/emission wavelength 445 nm) was read on the CLARIO star^Plus (purchased from BMG LRBTECH). Enzyme activity was determined at 9 concentrations for each compound, and data were processed using the GraphPad Prism software to calculate the half inhibitory concentration of the compound on D5, i.e. the IC50 value.

Row | SMILES | IC50 (LMP7 [1]) | IC50 (LMP7 [2]) | IC50 (β5)
1 | O=C(N[C@@H](Cc1coc2ccccc12)B(O)O)C(=O)N[C@@H]1C[C@H]2CC[C@@H]1O2 [Ex. 1, ((R)-1-(2-(((1S,2R,4R)-7-oxabicyclo[2.2.1]heptan-2-yl)amino)-2-oxoacetamido)-2-(benzofuran-3-yl)ethyl)boronic acid] | 5.94 nM | 7.65 nM | 154 nM
2 | CNC(=O)C(=O)N[C@@H](Cc1coc2ccccc12)B(O)O [Ex. 2, (R)-(2-(benzofuran-3-yl)-1-(2-(methylamino)-2-oxoacetamido)ethyl)boronic acid] | – | 26.9 nM | –
3 | CON(C)C(=O)C(=O)N[C@@H](Cc1coc2ccccc12)B(O)O [Ex. 3, (R)-(2-(benzofuran-3-yl)-1-(2-(methoxy(methyl)amino)-2-oxoacetamido)ethyl) boronic acid] | – | 13 nM | 507 nM
4 | CCN(CC)C(=O)C(=O)N[C@@H](Cc1coc2ccccc12)B(O)O [Ex. 4, (R)-(2-(benzofuran-3-yl)-1-(2-(diethylamino)-2-oxoacetamido)ethyl)boronic acid] | – | 22.3 nM | –
5 | CN(C)C(=O)C(=O)N[C@@H](Cc1coc2ccccc12)B(O)O [Ex. 6, (R)-(2-(benzofuran-3-yl)-1-(2-(dimethylamino)-2-oxoacetamido)ethyl)boronic acid] | – | 28.5 nM | –
6 | O=C(N[C@H]1CCOC1)C(=O)N[C@@H](Cc1coc2ccccc12)B(O)O [Ex. 7, ((R)-2-(benzofuran-3-yl)-1-(2-oxo-2(((S)-tetrahydrofuran-3-yl)amino)acetamido)ethyl) boronic acid] | – | 7.7 nM | 123 nM
7 | C[C@@H](NC(=O)C(=O)N[C@@H](Cc1coc2ccccc12)B(O)O)c1ccccn1 [Ex. 8, ((R)-2-(benzofuran-3-yl)-1-(2-oxo-2-(((R)-1-(pyridin-2-yl)ethyl)amino)acetamido)ethyl)boronic acid] | – | 24.7 nM | –
8 | O=C(NC1CCOCC1)C(=O)N[C@@H](Cc1coc2ccccc12)B(O)O [Ex. 11, (R)-(2-(benzofuran-3-yl)-1-(2-oxo-2-((tetrahydro-2H-pyran-4-yl)amino)acetamido)ethyl)boronic acid] | – | 7.3 nM | 123 nM
9 | O=C(Nc1nccs1)C(=O)N[C@@H](Cc1coc2ccccc12)B(O)O [Ex. 13, (R)-(2-(benzofuran-3-yl)-1-(2-oxo-2-(thiazol-2-ylamino)acetamido)ethyl) boronic acid] | 4.06 nM | 3.13 nM | 58.7 nM
10 | O=C1CC[C@H](N2C(=O)c3ccc(N4CCN(CC5CCN(C(=O)C(=O)N[C@@H](Cc6coc7ccccc67)B(O)O)CC5)CC4)cc3C2=O)C(=O)N1 [Ex. 16, ((R)-2-(benzofuran-3-yl)-1-(2-(4-((4-(2-((S)-2,6-dioxopiperidin-3-yl)-1,3-dioxoisoindolin-5-yl)piperazin-1-yl)methyl)piperidin-1-yl)-2-oxoacetamido)ethyl)boronic acid] | – | 32.9 nM | 58.7 nM
11 | CC1(C)[C@@H]2C[C@H]3OB([C@H](Cc4coc5ccccc45)NC(=O)C(=O)Nc4cnccn4)O[C@@]3(C)[C@H]1C2 [Ex. 17, (R)-(2-(benzofuran-3-yl)-1-(2-oxo-2-(pyrazin-2-ylamino)acetamido)ethyl) boronic acid (1S,2S,3R,5S)-(+)-pinane-2,3-diol ester] | 0.8 nM | 2.6 nM | 30.1 nM
12 | O=C(O)CC1(CC(=O)O)OB([C@H](Cc2coc3ccccc23)NC(=O)C(=O)Nc2cnccn2)OC1=O [Ex. 18, (R)-2,2′-(2-(2-(benzofuran-3-yl)-1-(2-oxo-2-(pyrazin-2-ylamino)acetamido)ethyl)-5-oxo-1,3,2-dioxaborolane-4,4-diyl)diacetic acid] | 1.26 nM | 2.42 nM | 34.1 nM
13 | CC1(C)OB([C@H](Cc2coc3ccccc23)NC(=O)C(=O)Nc2cnccn2)OC1(C)C [Ex. 19, N-((1R)-2-(1-benzofuran-3-yl)-1-(tetramethyl-1,3,2-dioxaborolan-2-yl)ethyl)-N-(pyrazin-2-yl)oxalamide] | 0.69 nM | 1.11 nM | 12.2 nM
